The source of these data is paper PMC6718453 (Frontiers in Aging Neuroscience, 2019).

Values after ≈ are worked out from the molar mass of the structure shown.

In this test the target is acetylcholinesterase (AChE).

In the case of `O=C(/C=C/C=C/c1ccc2c(c1)OCO2)N1CCCCC1` [piperine], the “IC50 ± SEM” value is 76.6 ± 0.08 µg/mL (≈ 268 µM).
